Article PMC11239830, “Synthetic macrolides overcoming MLSBK-resistant pathogens” (Cell Discovery, 2024)
≈ marks a conversion by molar mass, not a printed value. Like-named read-outs stand apart in the source and are kept apart here.

Legend:
Test in all cases: MIC, broth microdilution
S. pneumoniae = format: cell-based, Streptococcus pneumoniae
Experimental: (§1) MICs were determined by the microdilution method according to the Clinical and Laboratory Standards Institute guidelines. […] Finally, the 96-well plates were incubated at 37 °C for 16–20 h to observe and record the results. […] The assay for MICs was replicated at least three times.

S. pyogenes = format: cell-based, Streptococcus pyogenes; settings: S. pyogenes 12-206, c-ermTR
Experimental: as §1

S. aureus = format: cell-based, Staphylococcus aureus
Experimental: as §1

H. influenzae = format: cell-based, Haemophilus influenzae
Experimental: as §1

[1] = Streptococcus pneumoniae, ATCC49619, S. pneumoniae ATCC49619, Ery-S, read-out: MIC
[2] = Streptococcus pneumoniae, S. pneumoniae PU09, mef, read-out: MIC
[3] = Streptococcus pyogenes, read-out: MIC
[4] = Haemophilus influenzae, ATCC49247, H. influenzae ATCC49247, Azi-S, read-out: MIC

SMILES | MIC (S. pneumoniae; S. pneumoniae 07P390, c-ermB) [µg/mL] | MIC (S. pneumoniae; S. pneumoniae ATCC49619, Ery-S) [µg/mL] | MIC (S. pneumoniae; S. pneumoniae PU09, mef) [µg/mL] | MIC (S. pyogenes) [µg/mL] | MIC (S. aureus; S. aureus 15B196, c-ermB) [µg/mL] | MIC (S. aureus; S. aureus PU32, i-ermA) [µg/mL] | MIC (H. influenzae; H. influenzae ATCC49247, Azi-S) [µg/mL] | MIC (S. pneumoniae; Streptococcus pneumoniae, S. pneumoniae 07P390, c-ermB, read-out: MIC) [µg/mL] | MIC (S. aureus; Staphylococcus aureus, S. aureus 15B196, c-ermB, read-out: MIC) [µg/mL] | MIC (S. aureus; Staphylococcus aureus, S. aureus PU32, i-ermA, read-out: MIC) [µg/mL] | MIC (S. pneumoniae; [1]) [µg/mL] | MIC (S. pneumoniae; [2]) [µg/mL] | MIC (S. pyogenes; [3]) [µg/mL] | MIC (H. influenzae; [4]) [µg/mL] | MIC (S. pneumoniae; Streptococcus pneumoniae, S. pneumoniae 07P390, c-ermB) [µg/mL] | MIC (S. aureus; Staphylococcus aureus, S. aureus 15B196, c-ermB) [µg/mL] | MIC (S. aureus; Staphylococcus aureus, S. aureus PU32, i-ermA) [µg/mL]
CC[C@H]1OC(=O)[C@H](C)[C@@H](OC(=O)NCCCCCCC#Cc2ccc3c(=O)c(C(=O)O)cn(C4CC4)c3c2)[C@H](C)[C@@H](O[C@@H]2O[C@H](C)C[C@H](N(C)C)[C@H]2O)[C@](C)(O)C[C@@H](C)CN(C)[C@H](C)[C@H]2OC(=O)O[C@@]21C [111c] | 0.5 (≈ 0.502 µM) | ≤ 0.008 | ≤ 0.008 | 2 (≈ 2.01 µM) | 16 (≈ 16.1 µM) | 4 (≈ 4.02 µM) | 8 (≈ 8.04 µM) | – | – | – | – | – | – | – | – | – | –
CC[C@H]1OC(=O)[C@H](C)[C@@H](OC(=O)NCCOCCC#Cc2ccc3c(c2)c(=O)c(C(=O)O)cn3C2CC2)[C@H](C)[C@@H](O[C@@H]2O[C@H](C)C[C@H](N(C)C)[C@H]2O)[C@](C)(O)C[C@@H](C)CN(C)[C@H](C)[C@H]2OC(=O)O[C@@]21C [116a] | 512 (≈ 521 µM) | 4 (≈ 4.07 µM) | 8 (≈ 8.14 µM) | 512 (≈ 521 µM) | 512 (≈ 521 µM) | 128 (≈ 130 µM) | 64 (≈ 65.1 µM) | – | – | – | – | – | – | – | – | – | –
CC[C@H]1OC(=O)[C@H](C)[C@@H](OC(=O)NCCOCCC#Cc2ccc3c(=O)c(C(=O)O)cn(C4CC4)c3c2)[C@H](C)[C@@H](O[C@@H]2O[C@H](C)C[C@H](N(C)C)[C@H]2O)[C@](C)(O)C[C@@H](C)CN(C)[C@H](C)[C@H]2OC(=O)O[C@@]21C [116c] | 4 (≈ 4.07 µM) | 0.12 (≈ 0.122 µM) | 1 (≈ 1.02 µM) | 8 (≈ 8.14 µM) | 512 (≈ 521 µM) | 32 (≈ 32.5 µM) | 8 (≈ 8.14 µM) | – | – | – | – | – | – | – | – | – | –
CC[C@H]1OC(=O)[C@H](C)[C@@H](OC(=O)NCCCOCCC#Cc2ccc3c(c2)c(=O)c(C(=O)O)cn3C2CC2)[C@H](C)[C@@H](O[C@@H]2O[C@H](C)C[C@H](N(C)C)[C@H]2O)[C@](C)(O)C[C@@H](C)CN(C)[C@H](C)[C@H]2OC(=O)O[C@@]21C [117a] | 512 (≈ 513 µM) | 1 (≈ 1 µM) | 2 (≈ 2.01 µM) | 512 (≈ 513 µM) | 512 (≈ 513 µM) | 32 (≈ 32.1 µM) | 32 (≈ 32.1 µM) | – | – | – | – | – | – | – | – | – | –
CC[C@H]1OC(=O)[C@H](C)[C@@H](O[C@H]2C[C@@](C)(OC)[C@@H](O)[C@H](C)O2)[C@H](C)[C@@H](O[C@@H]2O[C@H](C)C[C@H](N(C)C)[C@H]2O)[C@](C)(O)C[C@@H](C)CN(C)[C@H](C)[C@@H](O)[C@]1(C)O [azithromycin, reference compound] | – | – | – | – | – | – | – | – | – | – | 0.25 (≈ 0.334 µM) | 8 (≈ 10.7 µM) | > 256 | 2 (≈ 2.67 µM) | > 256 | > 256 | > 256

Continued, in another order:

MIC (S. pneumoniae; S. pneumoniae 07P390, c-ermB) [µg/mL] | MIC (S. pneumoniae; S. pneumoniae ATCC49619, Ery-S) [µg/mL] | MIC (S. pneumoniae; S. pneumoniae PU09, mef) [µg/mL] | MIC (S. pyogenes) [µg/mL] | MIC (S. aureus; S. aureus 15B196, c-ermB) [µg/mL] | MIC (S. aureus; S. aureus PU32, i-ermA) [µg/mL] | MIC (H. influenzae; H. influenzae ATCC49247, Azi-S) [µg/mL] | MIC (S. pneumoniae; Streptococcus pneumoniae, S. pneumoniae 07P390, c-ermB, read-out: MIC) [µg/mL] | MIC (S. aureus; Staphylococcus aureus, S. aureus 15B196, c-ermB, read-out: MIC) [µg/mL] | MIC (S. aureus; Staphylococcus aureus, S. aureus PU32, i-ermA, read-out: MIC) [µg/mL] | SMILES | MIC (S. pneumoniae; [1]) [µg/mL] | MIC (S. pneumoniae; [2]) [µg/mL] | MIC (S. pyogenes; [3]) [µg/mL] | MIC (H. influenzae; [4]) [µg/mL] | MIC (S. pneumoniae; Streptococcus pneumoniae, S. pneumoniae 07P390, c-ermB) [µg/mL] | MIC (S. aureus; Staphylococcus aureus, S. aureus 15B196, c-ermB) [µg/mL] | MIC (S. aureus; Staphylococcus aureus, S. aureus PU32, i-ermA) [µg/mL]
256 (≈ 261 µM) | 1 (≈ 1.02 µM) | 2 (≈ 2.04 µM) | 512 (≈ 522 µM) | 256 (≈ 261 µM) | 16 (≈ 16.3 µM) | 32 (≈ 32.6 µM) | – | – | – | CC[C@H]1OC(=O)[C@H](C)[C@@H](OC(=O)NCCCCCC#Cc2ccc3c(c2)c(=O)c(C(=O)O)cn3C2CC2)[C@H](C)[C@@H](O[C@@H]2O[C@H](C)C[C@H](N(C)C)[C@H]2O)[C@](C)(O)C[C@@H](C)CN(C)[C@H](C)[C@H]2OC(=O)O[C@@]21C [110a] | – | – | – | – | – | – | –
1 (≈ 1.02 µM) | 0.016 (≈ 0.0163 µM) | 0.06 (≈ 0.0611 µM) | 2 (≈ 2.04 µM) | 128 (≈ 130 µM) | 4 (≈ 4.08 µM) | 8 (≈ 8.15 µM) | – | – | – | CC[C@H]1OC(=O)[C@H](C)[C@@H](OC(=O)NCCCCCC#Cc2ccc3c(=O)c(C(=O)O)cn(C4CC4)c3c2)[C@H](C)[C@@H](O[C@@H]2O[C@H](C)C[C@H](N(C)C)[C@H]2O)[C@](C)(O)C[C@@H](C)CN(C)[C@H](C)[C@H]2OC(=O)O[C@@]21C [110c] | – | – | – | – | – | – | –
256 (≈ 257 µM) | 0.5 (≈ 0.502 µM) | 2 (≈ 2.01 µM) | 128 (≈ 129 µM) | 128 (≈ 129 µM) | 32 (≈ 32.2 µM) | 16 (≈ 16.1 µM) | – | – | – | CC[C@H]1OC(=O)[C@H](C)[C@@H](OC(=O)NCCCCCCC#Cc2ccc3c(c2)c(=O)c(C(=O)O)cn3C2CC2)[C@H](C)[C@@H](O[C@@H]2O[C@H](C)C[C@H](N(C)C)[C@H]2O)[C@](C)(O)C[C@@H](C)CN(C)[C@H](C)[C@H]2OC(=O)O[C@@]21C [111a] | – | – | – | – | – | – | –
– | – | – | – | – | – | – | 2 (≈ 2.09 µM) | 16 (≈ 16.7 µM) | 2 (≈ 2.09 µM) | CC[C@H]1OC(=O)[C@H](C)[C@@H](OC(=O)NCCCCCCC#Cc2ccc3c(=O)c(C(=O)O)cn(C)c3c2)[C@H](C)[C@@H](O[C@@H]2O[C@H](C)C[C@H](N(C)C)[C@H]2O)[C@](C)(OC)C[C@@H](C)NC(=O)[C@H](C)[C@@H](O)[C@]1(C)O [126g] | 0.06 (≈ 0.0627 µM) | 0.12 (≈ 0.125 µM) | 2 (≈ 2.09 µM) | 4 (≈ 4.18 µM) | – | – | –
